The results in this text go back to patent US8658668B2, “PI3 kinase/mTOR dual inhibitor” (Eli Lilly and Company, priority 2011, dated 2014).

The term pIC50 denotes the IC50 on a negative log10 scale, so that one unit is a factor of ten.

Structures are written as SMILES. pIC50: −log10 of the molar value.

One assay has as its system AKT1(pT308). The assay is described as follows: AlphaScreen SureFire p-AKT (Thr308) in U87MG cells. In kind it is cell-based. The note with it: Homo sapiens, U-87 MG, 1 h, n = 4, read-out: AKT1(pT308) Absolute IC50. The method, then:
(§1) This homogeneous assay format uses immuno-sandwich capture of the phosphorylated analyte and then detection with antibody-coated Alphascreen beads to generate an amplified signal.
(§2) Maintain U87MG cells in U87MG growth medium consisting of DMEM (GIBCO 11965-092) supplemented with 10% fetal bovine serum (FBS, GIBCO, 10091-141), 1% nonessential amino acids (GIBCO, 11140-050) and 1% sodium pyruvate (GIBCO, 11360-070). Harvest cells using standard cell culture procedures and then count using Vi-Cell. Plate 100 μL of U87MG cells in growth medium (50,000 cells/well) into Costar #3596 96 well plates and incubate overnight at 37° C., 5% CO2.
(§3) Incubate for one h at 37° C., then remove the medium and add 50 μL of 1× SureFire Lysis Buffer (TGR Biosciences SureFire® Kit component) to each well and incubate at room temperature for 10 min with gentle shaking Transfer 6 μL lysate and 10 μL reaction mixture (60 parts reaction buffer/10 parts activation buffer/1 part each of donor and acceptor beads, Perkin Elmer, 6760617R) to a 384 well proxiplate (Perkin Elmer, 6006280) for the p-p70S6 kinase (Thr389) and p-AKT(Ser473) assays. Seal the plate and incubate at RT for 4 h. […] Read the plates on a Perkin Elmer EnVision equipped with a TurboModule using standard AlphaScreen® settings (Ex680 nm and Em520-620 nm). […]
For orientation: In Alpha technology, singlet oxygen from a donor bead excites a nearby acceptor bead.

The next assay deals with AKT1(pS473). The assay is described as follows: AlphaScreen SureFire p-AKT (Ser473) in U87MG cells. In kind it is cell-based. As to conditions: Homo sapiens, U-87 MG, 1 h, n = 4, read-out: AKT1(pS473) Absolute IC50. The method, then: as §1, §2, §3
The subject of another assay is H1975. Kind of assay: Cell proliferation assay (CellTiter-Glo), H1975. The assay is classed as cell-based. The note with it: Homo sapiens, NCI-H1975, 72 h. On the procedure:
Plate cells in a 96-well plate at 2000 cells/well in 100 μL of cell specific medium (for U87MG use DMEM, 10% FBS, 25 mM 4-(2-hydroxyethyl)-1-piperazineethanesulfonic acid (HEPES), 1.0 mM sodium pyruvate, and 0.1 mM Non Essential Amino Acids (ATCC Cat.#30-2002); for HT1080 use Eagle's MEM, 10% FBS (ATCC Cat.#30-2003); for H1975, A2780, SJSA-1 and 786-O use RPMI 1640, 10% FBS (ATCC Cat.#30-2001); for A204 use McCoy's 5A, 10% FBS (ATCC Cat.#30-2007) except in column 1 use medium only as the blank control. Incubate the plates overnight at 37° C. and 5% CO2. On the next day, prepare compound stocks at 1 mM in DMSO and serially dilute in DMSO in a 96-well round bottom polypropylene plate. Assay compounds at 10 concentrations in duplicate, 4 compounds per plate.
Transfer 4 μL of the DMSO serial dilutions to a 96 well plate and add 196 μL of culture medium to create a 10× stock for dosing. Gently transfer 11 μL of each dosing stock to the corresponding well of the cell plate resulting in a 0.2% DMSO concentration and a 111 μL final volume. […]
Prepared the CellTiter-Glo reagent (Promega, Cat: G7571) and add 100 µL to each well after the incubation is complete, homogenize the cells by mixing on an orbital shaker for 2 min and then incubate at RT for 10 min to allow the luminescent signal to stabilize. Record the luminescent raw data with a Wallac Victor V plate reader. […]

The subject of assay [1] is CXF 243 human tumor xenograft cells. The assay is described as follows: Oncotest tumor clonogenic assay, CXF 243. The assay is classed as cell-based. The note with it: colony formation, Colon CXF 243, adeno carcinoma, pd, read-out: Absolute IC50.
The test system of assay [2] is GXF 1172 human tumor xenograft cells. The assay is described as follows: Oncotest tumor clonogenic assay, GXF 1172. The assay is classed as cell-based. As to conditions: colony formation, Gastric GXF 1172, signet-ring cell carcinoma, pd, read-out: Absolute IC50.
In assay [3] the test system is LXFA 629 human tumor xenograft cells. The assay is described as follows: Oncotest tumor clonogenic assay, LXFA 629. As to conditions: colony formation, NSCLC LXFA 629, adeno carcinoma, pd, read-out: Absolute IC50. The assay is classed as cell-based.
In assay [4] the test system is LXFE 211 human tumor xenograft cells. Kind of assay: Oncotest tumor clonogenic assay, LXFE 211. In kind it is cell-based. The note with it: colony formation, NSCLC LXFE 211, squamous cell carcinoma, ud, read-out: Absolute IC50.
Assay [5] deals with OVXF 899 human tumor xenograft cells. Kind of assay: Oncotest tumor clonogenic assay, OVXF 899. The note with it: colony formation, Ovary OVXF 899, pap. serous adeno carcinoma, md, read-out: Absolute IC50. The assay is classed as cell-based.
In assay [6] the test system is human non-small cell lung cancer cells NCI-H1975. Kind of assay: Xenograft tumor model, NCI-H1975. The assay is classed as in vivo, mouse. The note with it: oral gavage. On the procedure:
Expand human glioblastoma cells U87MG and human renal carcinoma cells 786-O, in culture, harvest and inject subcutaneously onto the rear flank of athymic nude mice. Expand human non-small cell lung cancer cells NCI-H1975 in culture, harvest and inject subcutaneously onto the rear flank of CD-1 nu/nu mice. Prepare test compound in an appropriate vehicle and administer by oral gavage when tumors are established (7-21 days after implant). Tumor response is determined by tumor volume measurement performed twice a week during the course of treatment. Body weight is taken as a general measurement of toxicity.

Take `CO[C@@H](C)Cn1c(=O)n(C)c2cnc3ccc(-c4cncc(C(C)(C)O)c4)cc3c21` [Example 1, 8-[5-(1-Hydroxy-1-methylethyl)pyridin-3-yl]-1-[(2S)-2-methoxypropyl]-3-methyl-1,3-dihydro-2H-imidazo[4,5-c]quinolin-2-one]: the negative-log IC50 (pIC50) was 6.97 with AKT1(pT308); 7.03 in the assay on AKT1(pS473); 6.99 in the assay with H1975; 6.63 in assay [1]; 6.85 in [2]; 7.59 in assay [3]. Moreover, the pIC50 was 6.97 in assay [4] and 6.23 in [5]. Besides, the “% TGI” value stood at 13.8% in assay [6] (H1975, 3 mg/kg BID); 26.9% in assay [6] (H1975, 6 mg/kg BID); 62.7% in assay [6] (H1975, 10 mg/kg BID).
